Reference: patent publication US10906946B2, “Thrombin inhibitors” (priority 2015, dated 2021)
Peptide text beside a SMILES is read from it.

What was measured:
[1] = system: other serine proteases (trypsin, fIXa, fXIa, fXa, chymotrypsin, tPA, fVIIa, plasmin, APC, kallikrein, urokinase, fXIIa); assay: Serine protease selectivity screen (amidolytic assays with chromogenic substrates); type: biochemical
Procedure: Avathrin was screened for its selectivity against 13 serine proteases including procoagulant, anticoagulant, fibrinolytic and classical serine proteases (thrombin, trypsin, fIXa, fXIa, fXa, chymotrypsin, tPA, fVIIa, plasmin, APC, kallikrien, urokinase and fXIIa). […]
Thrombin amidolytic activity assays for all peptides were performed in 96-wells microtiter plates in 50 mM Tris buffer (pH 7.4) containing 100 mM NaCl and 1 mg/ml bovine serum albumin. […] The rates of formation of p-nitroaniline were followed by measuring the absorbance at 405 nm for 10 min with a Tecan InfinitePro M200 microplate reader from Tecan (Männedorf, Switzerland). […] To measure the inhibitory constants, different concentrations of S2238 were used and the residual velocities were determined using the Morrison's tight binding equation. Inhibition of thrombin fibrinogenolytic activity of peptides were tested by measuring absorbance at 650 nm using a Sunrise microplate reader from Tecan (Männedorf, Switzerland) as described previously [Koh C Y, et al., J Biol Chem 282: 29101-13 (2007)]. […] Effects of avathrin on the amidolytic activities of these serine proteases were determined using respective chromogenic substrates. […]

[2] = system: FeCl3-induced carotid artery thrombosis; assay: Ferric chloride-induced carotid artery thrombosis model; type: in vivo, C57BL/6 male mice; settings: mice, 10% FeCl3
Procedure: All animal experiments were carried out under protocol 041/12 approved by Institutional Animal Care and Use Committee, National University of Singapore. The ferric chloride induced carotid artery thrombosis model was performed as described previously [Eckly A, et al., J Thromb Haemost 9: 779-89 (2011)] with minor modifications. Typically, C57BL/6 male mice (9-11 weeks old, 24.5-27.5 g) were anesthetized with an intraperitoneal injection of ketamine (75 mg/kg) and medetomidine (1 mg/kg). 100 μL of different doses of avathrin were injected into the mice via tail vein. The right carotid artery was dissected using blunt dissection and a vascular injury was caused applying filter paper of 2 mm×2 mm saturated with FeCl3 on top of the carotid artery. After 3 min, the filter paper was removed and the vessel was washed with sterile normal saline. To determine the time to occlusion, a miniature Doppler flow probe (Transonic Systems Inc., Ithaca, N.Y., USA) was placed around the carotid artery and blood flow was recorded using a Transonic® flow meter from ADInstruments (Dunedin, New Zealand). The maximal time for monitoring the blood flow after injury was 30 min. Mice were euthanized by cervical dislocation immediately after the completion of the experiment and prior to recovery from anesthesia.

clot-bound thrombin = clot-bound thrombin (Homo sapiens, UniProt P00734); assay: biochemical
Procedure: Clot-bound thrombin activity was tested using S2238. Briefly, fibrin clots were prepared by incubating 100 μL of 2 mg/mL fibrinogen (in 50 mM HEPES buffer, pH 7.5, 150 mM NaCl, 10 mg/mL CaCl2) with 100 μL 30 nM thrombin. After 2 h at 37° C., the clots were extensively washed with the same buffer. This washing was repeated after every three hours for a period of 24 hr. […] Chromogenic substrate, S2238 (final concentration 200 μM) was then added and the reaction mixture was incubated for 90 min at 37° C. Aliquots were taken, and substrate hydrolysis was estimated by end point reading at 405 nm, using a Tecan InfinitePro microplate reader. Experiments were performed in quadruplicate and percentage inhibition was plotted.

## CC[C@H](C)[C@H](NC(=O)[C@H](CCCCN)NC(=O)[C@@H]1CCCN1C(=O)[C@@H](NC(=O)[C@H](C)NC(=O)[C@@H](NC(=O)[C@H](CCC(N)=O)NC(=O)[C@H](Cc1c[nH]cn1)NC(=O)CNC(=O)CNC(=O)[C@@H](N)CO)[C@@H](C)O)C(C)C)C(=O)N[C@@H](CO)C(=O)N[C@@H](CCCCN)C(=O)N[C@@H](CCC(N)=O)C(=O)NCC(=O)N[C@@H](CC(C)C)C(=O)NCC(=O)NCC(=O)N[C@@H](CC(=O)O)C(=O)N[C@@H](Cc1ccccc1)C(=O)N[C@@H](CCC(=O)O)C(=O)N[C@@H](CCC(=O)O)C(=O)N[C@H](C(=O)N1CCC[C@H]1C(=O)N[C@@H](CO)C(=O)N[C@@H](CC(=O)O)C(=O)N[C@@H](CCC(=O)O)C(=O)N[C@H](C(=O)N[C@H](C(=O)N[C@@H](CCC(=O)O)C(=O)O)[C@@H](C)CC)[C@@H](C)CC)[C@@H](C)CC [Avathrin] (H-SGGHQTAVPKISKQGLGGDFEEIPSDEIIE-OH; N-terminus and C-terminus assumed)
[1]; 100 μM avathrin
  inhibition of other proteases: < 30%
[1]; thrombin versus other serine proteases
  selectivity preference for thrombin: at least four orders of magnitude
[2]; 3 mg/kg intravenously
  time to occlusion (TTO): 15.03 ± 3.23 min
[2]; 10 mg/kg intravenously
  time to occlusion (TTO): 22.51 ± 4.19 min
clot-bound thrombin
  IC50: 1740 ± 350 nM
